Reference: the supplement of paper PMC6045584
± gives the standard deviation of the averaged measurements.

Tests used:
FLAVOPIRIDOL = compound: CN1CC[C@H](c2c(O)cc(O)c3c(=O)cc(-c4ccccc4Cl)oc23)[C@H](O)C1 [FLAVOPIRIDOL]; test: surviving fraction relative to DMSO-only wells; higher = less growth inhibition; conditions: exposure time: 5 days
Procedure, shortened: (§1)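 Inhibitors were tested at 0.5, 1, 5, 10, 50, 100, 500 and 1000 nM, applied continuously for five days beginning 24 hours after log-phase tumour cells were seeded at 250–500 per well in 384-well plates. CellTiter-Glo luminescence served as the viability measure, expressed as surviving fraction against the median of DMSO-only wells. Each line, screened three times, was kept only with replicate Pearson r >0.7 and median Z' >0.3.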

SALINOMYCIN = compound: CC[C@@H](C(=O)[C@@H](C)[C@@H](O)[C@H](C)[C@@H]1O[C@@H]([C@@H](CC)C(=O)O)CC[C@@H]1C)[C@H]1O[C@]2(C=C[C@@H](O)[C@]3(CC[C@@](C)([C@H]4CC[C@](O)(CC)[C@H](C)O4)O3)O2)[C@H](C)C[C@@H]1C [SALINOMYCIN]; test: as above; conditions: exposure time: 5 days
Procedure, shortened: as §1

Test System	surviving fraction (FLAVOPIRIDOL; 0.5 nM)	surviving fraction (FLAVOPIRIDOL; 1 nM)	surviving fraction (FLAVOPIRIDOL; 5 nM)	surviving fraction (FLAVOPIRIDOL; 10 nM)	surviving fraction (FLAVOPIRIDOL; 50 nM)	surviving fraction (FLAVOPIRIDOL; 100 nM)	surviving fraction (FLAVOPIRIDOL; 500 nM)	surviving fraction (FLAVOPIRIDOL; 1000 nM)	surviving fraction (SALINOMYCIN; 0.5 nM)	surviving fraction (SALINOMYCIN; 1 nM)	surviving fraction (SALINOMYCIN; 5 nM)	surviving fraction (SALINOMYCIN; 10 nM)	surviving fraction (SALINOMYCIN; 50 nM)	surviving fraction (SALINOMYCIN; 100 nM)	surviving fraction (SALINOMYCIN; 500 nM)	surviving fraction (SALINOMYCIN; 1000 nM)
SUM149 BREAST	0.955 ± 0.031	1.07 ± 0.051	1.06 ± 0.033	1.06 ± 0.087	0.681 ± 0.027	0.0783 ± 0.029	0.018 ± 0.0027	0.0183 ± 0.0032	0.981 ± 0.06	0.972 ± 0.14	1.02 ± 0.13	0.392 ± 0.03	1.06 ± 0.092	0.836 ± 0.052	0.424 ± 0.042	0.356 ± 0.01
SUM149.B1*.S BREAST	1.1 ± 0.047	1.09 ± 0.024	1.08 ± 0.063	1.044 ± 0.0039	1 ± 0.037	0.459 ± 0.06	0.0462 ± 0.0049	0.0412 ± 0.0016	1.02 ± 0.052	0.884 ± 0.057	0.955 ± 0.016	0.609 ± 0.014	0.982 ± 0.051	0.768 ± 0.032	0.3677 ± 0.0023	0.294 ± 0.016
SUM159 BREAST	1.08 ± 0.024	1.08 ± 0.021	1.09 ± 0.014	1.049 ± 0.0055	1.08 ± 0.026	0.44 ± 0.082	0.0913 ± 0.0097	0.0957 ± 0.0072	0.979 ± 0.033	0.92 ± 0.13	0.865 ± 0.25	0.934 ± 0.12	0.648 ± 0.14	0.475 ± 0.18	0.32 ± 0.088	0.268 ± 0.092
SYO1 SYNOVIAL	1.02 ± 0.044	1 ± 0.064	0.972 ± 0.073	0.881 ± 0.05	0.515 ± 0.0082	0.144 ± 0.0063	0.0511 ± 0.0021	0.0522 ± 0.004	0.905 ± 0.038	0.832 ± 0.089	0.876 ± 0.056	0.475 ± 0.14	0.949 ± 0.04	0.804 ± 0.1	0.293 ± 0.02	0.117 ± 0.028
T47D BREAST	0.974 ± 0.18	1.07 ± 0.022	1.01 ± 0.2	1.11 ± 0.039	1.15 ± 0.051	0.67 ± 0.073	0.195 ± 0.0027	0.148 ± 0.0041	1 ± 0.034	1.017 ± 0.0096	0.983 ± 0.04	0.898 ± 0.047	1.07 ± 0.015	1.07 ± 0.046	0.891 ± 0.041	0.631 ± 0.018
U2OS BONE	1.04 ± 0.049	1.03 ± 0.042	1.1 ± 0.028	1.09 ± 0.053	0.956 ± 0.017	0.112 ± 0.015	0.033 ± 0.0017	0.03 ± 0.001	1.01 ± 0.022	1.02 ± 0.04	1.01 ± 0.016	1.015 ± 0.0081	1.06 ± 0.019	1.04 ± 0.029	0.783 ± 0.024	0.538 ± 0.035
VCAP PROSTATE	1.05 ± 0.085	1.02 ± 0.079	1.42 ± 0.065	1.52 ± 0.076	0.87 ± 0.058	0.324 ± 0.031	0.042 ± 0.01	0.051 ± 0.031	1.07 ± 0.18	1.04 ± 0.12	1.09 ± 0.074	1.14 ± 0.053	1.08 ± 0.13	1.04 ± 0.023	0.245 ± 0.044	0.144 ± 0.0072
VP229 BREAST	1.13 ± 0.17	1.11 ± 0.062	1.16 ± 0.073	0.957 ± 0.12	0.564 ± 0.095	0.211 ± 0.13	0.0273 ± 0.0031	0.0273 ± 0.004	0.949 ± 0.074	0.907 ± 0.022	1.04 ± 0.15	0.891 ± 0.12	0.831 ± 0.14	0.52 ± 0.021	0.139 ± 0.017	0.133 ± 0.015
YAMATO SYNOVIAL	1.12 ± 0.068	1.08 ± 0.053	1.25 ± 0.061	1.11 ± 0.11	0.682 ± 0.082	0.306 ± 0.023	0.26 ± 0.0092	0.29 ± 0.013	1.11 ± 0.044	0.733 ± 0.042	0.984 ± 0.046	0.216 ± 0.0092	1.05 ± 0.08	0.655 ± 0.029	0.359 ± 0.013	0.133 ± 0.013
ZR751 BREAST	1.28 ± 0.14	1.25 ± 0.051	1.21 ± 0.037	1.25 ± 0.033	1.108 ± 0.0081	0.453 ± 0.057	0.089 ± 0.0095	0.0853 ± 0.0065	1.05 ± 0.086	1.01 ± 0.11	0.992 ± 0.14	1.03 ± 0.092	1.17 ± 0.15	0.787 ± 0.089	0.408 ± 0.055	0.289 ± 0.024
